Each structure is given as a SMILES string. Structures can show the parent of a compound that is named as a salt. Where only a bound is given, the exact number is not on record here.

For one assay, the target named is T1, Androgen Receptor (Homo sapiens, UniProt P10275, T878A).
T1 construct: the AR gene was modified, using CRISPR/Cas9 editing, so the expressed AR protein included an 11 amino acid HiBiT tag; endogenous in cells; host or cells: clonal LnCaP-derived line, AR gene edited by CRISPR/Cas9
T1 sequence (P10275 whole entry T878A): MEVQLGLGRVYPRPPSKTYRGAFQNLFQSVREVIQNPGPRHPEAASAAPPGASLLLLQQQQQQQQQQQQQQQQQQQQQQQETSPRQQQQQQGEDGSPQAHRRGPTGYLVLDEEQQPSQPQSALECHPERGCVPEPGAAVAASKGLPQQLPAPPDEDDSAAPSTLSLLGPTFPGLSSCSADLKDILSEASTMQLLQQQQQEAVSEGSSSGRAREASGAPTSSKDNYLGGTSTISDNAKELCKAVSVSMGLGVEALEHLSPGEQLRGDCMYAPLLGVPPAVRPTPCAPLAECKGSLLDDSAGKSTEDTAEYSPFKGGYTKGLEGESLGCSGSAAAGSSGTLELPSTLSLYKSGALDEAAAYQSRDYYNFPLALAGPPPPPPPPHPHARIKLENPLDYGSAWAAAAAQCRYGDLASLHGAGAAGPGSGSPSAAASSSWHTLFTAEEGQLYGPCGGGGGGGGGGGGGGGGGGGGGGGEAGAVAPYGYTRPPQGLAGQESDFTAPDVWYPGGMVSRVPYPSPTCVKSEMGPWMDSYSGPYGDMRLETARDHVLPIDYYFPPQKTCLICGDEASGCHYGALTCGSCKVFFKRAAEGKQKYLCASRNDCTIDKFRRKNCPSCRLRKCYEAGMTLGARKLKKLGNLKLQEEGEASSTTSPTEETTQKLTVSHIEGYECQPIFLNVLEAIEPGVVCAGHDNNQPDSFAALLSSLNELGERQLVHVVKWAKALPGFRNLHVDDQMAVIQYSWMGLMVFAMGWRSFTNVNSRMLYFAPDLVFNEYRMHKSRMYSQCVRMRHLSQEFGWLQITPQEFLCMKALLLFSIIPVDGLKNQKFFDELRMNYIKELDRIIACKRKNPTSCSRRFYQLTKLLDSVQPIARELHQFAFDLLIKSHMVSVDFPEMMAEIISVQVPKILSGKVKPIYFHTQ
T1 sequence (Q96SW2 whole entry partner): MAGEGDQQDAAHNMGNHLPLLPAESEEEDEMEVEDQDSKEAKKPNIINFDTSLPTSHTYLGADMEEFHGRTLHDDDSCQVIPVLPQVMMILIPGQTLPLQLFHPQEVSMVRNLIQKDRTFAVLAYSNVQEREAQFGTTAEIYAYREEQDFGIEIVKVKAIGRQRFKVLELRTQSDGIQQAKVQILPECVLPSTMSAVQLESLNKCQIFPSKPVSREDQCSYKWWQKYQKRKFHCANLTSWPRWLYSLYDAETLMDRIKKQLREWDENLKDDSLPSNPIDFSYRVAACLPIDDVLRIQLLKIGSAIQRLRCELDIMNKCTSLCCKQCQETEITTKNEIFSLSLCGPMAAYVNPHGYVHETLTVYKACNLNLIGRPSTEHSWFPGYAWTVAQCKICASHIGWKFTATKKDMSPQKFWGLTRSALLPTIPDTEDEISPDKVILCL
T1 sequence (Q16531 whole entry partner): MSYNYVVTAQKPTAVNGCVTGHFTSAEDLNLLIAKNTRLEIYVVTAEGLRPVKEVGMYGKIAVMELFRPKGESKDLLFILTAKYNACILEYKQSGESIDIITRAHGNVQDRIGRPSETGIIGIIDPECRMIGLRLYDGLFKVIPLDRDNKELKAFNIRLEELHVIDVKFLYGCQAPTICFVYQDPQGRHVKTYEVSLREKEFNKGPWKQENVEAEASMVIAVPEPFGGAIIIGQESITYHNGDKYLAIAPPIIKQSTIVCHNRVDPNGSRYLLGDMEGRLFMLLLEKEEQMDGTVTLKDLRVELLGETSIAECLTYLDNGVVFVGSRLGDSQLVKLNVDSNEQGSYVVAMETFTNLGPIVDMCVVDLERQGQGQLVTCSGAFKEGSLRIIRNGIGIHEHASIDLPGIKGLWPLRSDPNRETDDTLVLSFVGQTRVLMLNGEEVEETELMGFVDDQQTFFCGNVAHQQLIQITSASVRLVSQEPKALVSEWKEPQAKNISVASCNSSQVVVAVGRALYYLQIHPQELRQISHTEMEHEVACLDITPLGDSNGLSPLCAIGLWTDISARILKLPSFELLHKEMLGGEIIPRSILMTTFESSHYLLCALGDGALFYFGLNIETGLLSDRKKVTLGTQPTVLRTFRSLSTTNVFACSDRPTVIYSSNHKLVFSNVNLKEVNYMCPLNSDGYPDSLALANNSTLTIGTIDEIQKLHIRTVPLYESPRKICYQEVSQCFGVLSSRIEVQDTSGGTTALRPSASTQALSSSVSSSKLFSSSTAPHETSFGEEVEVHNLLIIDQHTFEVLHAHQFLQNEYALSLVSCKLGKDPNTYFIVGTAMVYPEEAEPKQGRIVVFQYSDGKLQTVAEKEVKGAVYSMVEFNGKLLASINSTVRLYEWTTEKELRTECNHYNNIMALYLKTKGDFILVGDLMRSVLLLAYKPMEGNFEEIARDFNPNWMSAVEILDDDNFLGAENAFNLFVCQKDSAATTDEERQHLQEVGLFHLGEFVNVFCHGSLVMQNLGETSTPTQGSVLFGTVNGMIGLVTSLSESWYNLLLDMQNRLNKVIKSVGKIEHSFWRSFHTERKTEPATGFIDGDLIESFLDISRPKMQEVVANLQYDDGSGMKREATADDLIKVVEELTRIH
The experiment in a line: Androgen Receptor Degradation Assay (Nano-Glo HiBiT). Format: cell-based. Conditions: HiBiT-tagged AR in human LnCaP cells, 18 h. On the procedure:
Degradation of Androgen Receptor protein in human LnCaP cells treated with PROTACs was quantified using the Nano-Glo® HiBiT Lytic Detection System (Promega) in 384 well assay plate format. A clonal LnCaP derived cell line was first established in which the AR gene was modified, using CRISPR/Cas9 editing, so the expressed AR protein included an 11 amino acid HiBiT tag at its amino-terminus. 10 mM DMSO stock solutions of PROTACs were prepared and diluted across an 11 concentration, 3 fold increment range, and 25 nL dispensed into a white opaque bottomed 384 well assay plate (Thermofisher) using an acoustic ECHO dispenser (Labcyte). […] For the assay, cells were detached from flask and resuspended with assay medium (FluoroBrite™ DMEM supplemented with 10% heat inactivated FBS, penicillin 50 U/mL and streptomycin 50 ug/mL (Thermofisher)). The cell suspension was centrifuged at 400 g for 5 min and the pellet resuspended in assay medium. 25 μL of cell suspension containing 10,000 cells was dispensed into each well of the assay plate containing the test compounds, which was then incubated for 18 h at 37° C./5% CO2. Control wells were included on each assay plate, with assay medium without cells being the no AR remaining 100% effect control, and cells treated with DMSO vehicle only, without PROTAC, the 0% effect control. 25 μL of Nano-Glo® HiBiT lysis buffer supplemented with LgBiT protein and Nano-Glo® substrate (Promega) was added to each well and the plate shaken at 500 rpm for 10 min at room temperature. The intensity of luminescence was measured using a PHERAstar microplate reader (BMG Labtech) and the % AR protein remaining in each well calculated by normalising the raw luminescence value to the above control wells. Parameters corresponding to the potency and efficacy estimates of the PROTACs were obtained from these normalised luminescence values using software (IDBS ActivityBase). These included the DC50 and the Dmax estimates. Two versions of the DC50, called relative DC50 and absolute DC50, were typically generated. These are the inflection point of a fitted 4 parameter sigmoidal response curve and the interpolated concentration of PROTAC corresponding to 50% of the protein being degraded, respectively. The Dmax parameter was the maximum experimentally observed degradation and the asymptote max parameter the fitted response curve asymptote maximum.
In general terms: The HiBiT peptide binds its large partner to form an active luciferase.
Take `C[C@@H]1CN(C(=O)Nc2ccc(N3CCC(CCN4CCC(n5ncc6c(N7CCC(=O)NC7=O)cncc65)CC4)CC3)nc2)[C@@H](C)CN1c1ccc(C#N)c(Cl)c1.O=CO` [EAR133, (2S,5R)-4-(3-Chloro-4-cyanophenyl)-N-(6-(4-(2-(4-(4-(2,4-dioxotetrahydropyrimidin-1(2H)-yl)-1H-pyrazolo[3,4-c]pyridin-1-yl)piperidin-1-yl)ethyl)piperidin-1-yl)pyridin-3-yl)-2,5-dimethylpiperazine-1-carboxamide, formic acid salt]: the “mean relative pDC50” value is reported as 5.94.

Staying with this assay, now noted: LNCaP, 18 h, HiBiT-tagged AR in human LnCaP cells, read-out: mean asymptote max.
Regarding `CC1CN(c2ccc(C(=O)N[C@H]3CC[C@H](Oc4ccc(C#N)c(Cl)c4)CC3)nn2)CCC1CN1CCC(n2ncc3c(N4CCC(=O)NC4=O)cccc32)CC1` (some centres unmarked) [EAR234, N-((1r,4r)-4-(3-chloro-4-cyanophenoxy)cyclohexyl)-6-(4-((4-(4-(2,4-dioxotetrahydropyrimidin-1(2H)-yl)-1H-indazol-1-yl)piperidin-1-yl)methyl)-3-methylpiperidin-1-yl)pyridazine-3-carboxamide], the Dmax was not below 50%.

As for `C[C@@H]1CN(c2ccc(C#N)c(Cl)c2)[C@@H](C)CN1C(=O)c1cnc(N2CCC(CN3CCC(n4ccc5c(N6CCC(=O)NC6=O)cncc54)CC3)CC2)cn1` [EAR147, 2-Chloro-4-((2S,5R)-4-(5-(4-((4-(4-(2,4-dioxotetrahydropyrimidin-1(2H)-yl)-1H-pyrrolo[2,3-c]pyridin-1-yl)piperidin-1-yl)methyl)piperidin-1-yl)pyrazine-2-carbonyl)-2,5-dimethylpiperazin-1-yl)benzonitrile], the Dmax is not below 50%.

Regarding `N#Cc1ccc(O[C@H]2CC[C@H](NC(=O)c3ccc(N4CCC(CN5CC[C@H](n6ccc7c(N8CCC(=O)NC8=O)cccc76)[C@H](F)C5)CC4)nn3)CC2)cc1Cl` [EAR156, N-((1r,4r)-4-(3-Chloro-4-cyanophenoxy)cyclohexyl)-6-(4-(((3R,4S)-4-(4-(2,4-dioxotetrahydropyrimidin-1(2H)-yl)-1H-indol-1-yl)-3-fluoropiperidin-1-yl)methyl)piperidin-1-yl)pyridazine-3-carboxamide, hydrochloride], the Dmax is not below 50%.

In the case of `N#Cc1ccc(O[C@H]2CC[C@H](NC(=O)c3ccc(CN4CCC(n5ccc6c(N7CCC(=O)NC7=O)cccc65)CC4)cc3)CC2)cc1Cl` [EAR180, N-((1r,4r)-4-(3-Chloro-4-cyanophenoxy)cyclohexyl)-4-((4-(4-(2,4-dioxotetrahydropyrimidin-1(2H)-yl)-1H-indol-1-yl)piperidin-1-yl)methyl)benzamide], the Dmax was not below 50%.

On to `C[C@H]1CN(c2ccc(C(=O)N[C@H]3CC[C@H](Oc4ccc(C#N)c(Cl)c4)CC3)nn2)CC[C@H]1CN1CCC(n2ncc3c(N4CCC(=O)NC4=O)cccc32)CC1` [EAR227, N-((1r,4R)-4-(3-chloro-4-cyanophenoxy)cyclohexyl)-6-((3R,4R)-4-((4-(4-(2,4-dioxotetrahydropyrimidin-1(2H)-yl)-1H-indazol-1-yl)piperidin-1-yl)methyl)-3-methylpiperidin-1-yl)pyridazine-3-carboxamide], for which the Dmax was not below 50%.

With `C[C@@H]1CN(c2ccc(C#N)c(Cl)c2)[C@@H](C)CN1C(=O)Nc1ccc(N2CCC(CCN3CCC(n4ccc5c(N6CCC(=O)NC6=O)cccc54)CC3)CC2)nc1` (racemic) [EAR115, rac-(trans)-4-(3-Chloro-4-cyanophenyl)-N-(6-(4-(2-(4-(4-(2,4-dioxotetrahydropyrimidin-1(2H)-yl)-1H-indol-1-yl)piperidin-1-yl)ethyl)piperidin-1-yl)pyridin-3-yl)-2,5-dimethylpiperazine-1-carboxamide], the Dmax was not below 50%.

As for `C[C@@H]1CN(c2ccc(C#N)c(Cl)c2)[C@@H](C)CN1C(=O)c1ccc(N2CCC(CN3CCC(n4ncc5c(N6CCC(=O)NC6=O)cncc54)CC3)CC2)nn1` [EAR146, 2-Chloro-4-((2S,5R)-4-(6-(4-((4-(4-(2,4-dioxotetrahydropyrimidin-1(2H)-yl)-1H-pyrazolo[3,4-c]pyridin-1-yl)piperidin-1-yl)methyl)piperidin-1-yl)pyridazine-3-carbonyl)-2,5-dimethylpiperazin-1-yl)benzonitrile], the Dmax was not below 50%.

On to `CN(C)C(=O)c1cc(N2CCC(=O)NC2=O)c2ccn(C3CCN(CC4CCN(c5ccc(C(=O)N[C@H]6CC[C@H](Oc7ccc(C#N)c(Cl)c7)CC6)nn5)CC4)CC3)c2c1` [EAR35, 1-(1-((1-(6-(((1r,4r)-4-(3-Chloro-4-cyanophenoxy)cyclohexyl)carbamoyl)pyridazin-3-yl)piperidin-4-yl)methyl)piperidin-4-yl)-4-(2,4-dioxotetrahydropyrimidin-1(2H)-yl)-N,N-dimethyl-1H-indole-6-carboxamide], for which the Dmax is not below 50%.

Take `CC1(C)[C@H](NC(=O)c2ccc(N3CCC(CN4CCC(n5ccc6c(N7CCC(=O)NC7=O)cncc65)CC4)CC3)nn2)C(C)(C)[C@H]1Oc1ccc(C#N)c(Cl)c1` [EAR56, N-((1r,3r)-3-(3-Chloro-4-cyanophenoxy)-2,2,4,4-tetramethylcyclobutyl)-6-(4-((4-(4-(2,4-dioxotetrahydropyrimidin-1(2H)-yl)-1H-pyrrolo[2,3-c]pyridin-1-yl)piperidin-1-yl)methyl)piperidin-1-yl)pyridazine-3-carboxamide]: the Dmax is not below 50%.

In the case of `CC1(CN2CCC(n3ccc4c(N5CCC(=O)NC5=O)cccc43)CC2)CCN(c2ccc(C(=O)N[C@H]3CC[C@H](Oc4ccc(C#N)c(Cl)c4)CC3)nn2)CC1` [EAR213, N-((1r,4r)-4-(3-Chloro-4-cyanophenoxy)cyclohexyl)-6-(4-((4-(4-(2,4-dioxotetrahydropyrimidin-1(2H)-yl)-1H-indol-1-yl)piperidin-1-yl)methyl)-4-methylpiperidin-1-yl)pyridazine-3-carboxamide], the Dmax was not below 50%.

For the molecule `CC1(CN2CCC(n3ncc4c(N5CCC(=O)NC5=O)cccc43)CC2)CN(c2ccc(C(=O)N[C@H]3CC[C@H](Oc4ccc(C#N)c(Cl)c4)CC3)nn2)C1` [EAR240, N-((1r,4r)-4-(3-chloro-4-cyanophenoxy)cyclohexyl)-6-(3-((4-(4-(2,4-dioxotetrahydropyrimidin-1(2H)-yl)-1H-indazol-1-yl)piperidin-1-yl)methyl)-3-methylazetidin-1-yl)pyridazine-3-carboxamide], the Dmax was not below 50%.

As to `CC1(C)CC(CN2CCC(n3ncc4c(N5CCC(=O)NC5=O)cccc43)CC2)CN(c2ccc(C(=O)N[C@H]3CC[C@H](Oc4ccc(C#N)c(Cl)c4)CC3)nn2)C1` (some centres unmarked) [EAR223, N-((1r,4r)-4-(3-chloro-4-cyanophenoxy)cyclohexyl)-6-(5-((4-(4-(2,4-dioxotetrahydropyrimidin-1(2H)-yl)-1H-indazol-1-yl)piperidin-1-yl)methyl)-3,3-dimethylpiperidin-1-yl)pyridazine-3-carboxamide], the Dmax is not below 50%.

`CC1(C)C(=O)N(c2ccc(C#N)c(C(F)(F)F)c2)C(=S)N1c1ccc(OCCCN2CCC(n3ccc4c(N5CCC(=O)NC5=O)cccc43)CC2)cc1` [EAR103, 4-(3-(4-(3-(4-(4-(2,4-Dioxotetrahydropyrimidin-1(2H)-yl)-1H-indol-1-yl)piperidin-1-yl)propoxy)phenyl)-4,4-dimethyl-5-oxo-2-thioxoimidazolidin-1-yl)-2-(trifluoromethyl)benzonitrile formate]: the Dmax is not below 50%.

Turning to `CC(C)n1ccc2c(N3CCC(=O)NC3=O)cc(C(=O)N3CCC4(CCN(CCCc5ccc(C(=O)N[C@H]6CC[C@H](Oc7ccc(C#N)c(Cl)c7)CC6)cc5)CC4)CC3)cc21` [EAR85, N-((1r,4r)-4-(3-Chloro-4-cyanophenoxy)cyclohexyl)-4-(3-(9-(4-(2,4-dioxotetrahydropyrimidin-1(2H)-yl)-1-isopropyl-1H-indole-6-carbonyl)-3,9-diazaspiro[5.5]undecan-3-yl)propyl)benzamide], the Dmax was not below 50%.

Take `C[C@@H]1CN(C(=O)Nc2ccc(N3CCC(CCN4CCC(n5ncc6c(N7CCC(=O)NC7=O)cncc65)CC4)CC3)nc2)[C@@H](C)CN1c1ccc(C#N)c(Cl)c1.O=CO` [EAR133, (2S,5R)-4-(3-Chloro-4-cyanophenyl)-N-(6-(4-(2-(4-(4-(2,4-dioxotetrahydropyrimidin-1(2H)-yl)-1H-pyrazolo[3,4-c]pyridin-1-yl)piperidin-1-yl)ethyl)piperidin-1-yl)pyridin-3-yl)-2,5-dimethylpiperazine-1-carboxamide, formic acid salt]: the Dmax is not below 50%.

Take `N#Cc1ccc(O[C@H]2CC[C@H](NC(=O)c3cnc(N4CCC(CN5CCC(n6ncc7c(N8CCC(=O)NC8=O)nccc76)CC5)CC4)cn3)CC2)cc1Cl` [EAR203, N-((1r,4r)-4-(3-Chloro-4-cyanophenoxy)cyclohexyl)-5-(4-((4-(4-(2,4-dioxotetrahydropyrimidin-1(2H)-yl)-1H-pyrazolo[4,3-c]pyridin-1-yl)piperidin-1-yl)methyl)piperidin-1-yl)pyrazine-2-carboxamide hydrochloride]: the Dmax is not below 50%.

These data come from US20250205344A1, “2,4-DIOXOTETRAHYDROPYRIMIDINYL DERATIVES AS DEGRONS IN PROTACS” (GLAXOSMITHKLINE INTELLECTUAL PROPERTY DEVELOPMENT LIMITED, priority 2022, published 2025).
